Reference: the NIST ThermoML archive (doi:10.1016/j.jct.2008.10.010)
Numbers after ± are expanded uncertainties.

Test: molar heat capacity at constant pressure; xn = mol fraction of the nth substance listed
Conditions: 101.3 kPa, Liquid, Small sample (50 mg) DSC

SMILES: CCC(C)(C)O [2-methylbutan-2-ol] + CCCCCCC
- molar heat capacity at constant pressure (309.15 K, x1 = 0.4986): 262.32 ± 4.1 J/K/mol
- molar heat capacity at constant pressure (309.15 K, x1 = 0.5981): 262.83 ± 4.1 J/K/mol
- molar heat capacity at constant pressure (309.15 K, x1 = 0.7015): 262.76 ± 4.1 J/K/mol
- molar heat capacity at constant pressure (309.15 K, x1 = 0.8023): 261.98 ± 4.1 J/K/mol
- molar heat capacity at constant pressure (309.15 K, x1 = 0.9139): 260.52 ± 4 J/K/mol
- molar heat capacity at constant pressure (309.15 K, x1 = 0.9609): 259.67 ± 4 J/K/mol
- molar heat capacity at constant pressure (310.16 K, x1 = 0.0061): 229.11 ± 3.5 J/K/mol
- molar heat capacity at constant pressure (310.16 K, x1 = 0.0249): 232.84 ± 3.6 J/K/mol
- molar heat capacity at constant pressure (310.16 K, x1 = 0.0494): 238.76 ± 3.7 J/K/mol
- molar heat capacity at constant pressure (310.16 K, x1 = 0.1): 246.57 ± 3.8 J/K/mol
- molar heat capacity at constant pressure (310.16 K, x1 = 0.1547): 251.57 ± 3.9 J/K/mol
- molar heat capacity at constant pressure (310.16 K, x1 = 0.1999): 254.63 ± 3.9 J/K/mol
- molar heat capacity at constant pressure (310.16 K, x1 = 0.2993): 259.26 ± 4 J/K/mol
- molar heat capacity at constant pressure (310.16 K, x1 = 0.4051): 261.91 ± 4.1 J/K/mol
- molar heat capacity at constant pressure (310.16 K, x1 = 0.4986): 263.33 ± 4.1 J/K/mol
- molar heat capacity at constant pressure (310.16 K, x1 = 0.5981): 263.88 ± 4.1 J/K/mol
- molar heat capacity at constant pressure (310.16 K, x1 = 0.7015): 263.9 ± 4.1 J/K/mol
- molar heat capacity at constant pressure (310.16 K, x1 = 0.8023): 263.1 ± 4.1 J/K/mol
- molar heat capacity at constant pressure (310.16 K, x1 = 0.9139): 261.67 ± 4 J/K/mol
- molar heat capacity at constant pressure (310.16 K, x1 = 0.9609): 260.83 ± 4 J/K/mol
- molar heat capacity at constant pressure (311.14 K, x1 = 0.0061): 229.41 ± 3.5 J/K/mol
- molar heat capacity at constant pressure (311.14 K, x1 = 0.0249): 233.01 ± 3.6 J/K/mol
- molar heat capacity at constant pressure (311.14 K, x1 = 0.0494): 238.96 ± 3.7 J/K/mol
- molar heat capacity at constant pressure (311.14 K, x1 = 0.1): 246.82 ± 3.8 J/K/mol
- molar heat capacity at constant pressure (311.14 K, x1 = 0.1547): 252.06 ± 3.9 J/K/mol
- molar heat capacity at constant pressure (311.14 K, x1 = 0.1999): 255.2 ± 4 J/K/mol
- molar heat capacity at constant pressure (311.14 K, x1 = 0.2993): 259.96 ± 4 J/K/mol
- molar heat capacity at constant pressure (311.14 K, x1 = 0.4051): 262.71 ± 4.1 J/K/mol
- molar heat capacity at constant pressure (311.14 K, x1 = 0.4986): 264.23 ± 4.1 J/K/mol
- molar heat capacity at constant pressure (311.14 K, x1 = 0.5981): 264.84 ± 4.1 J/K/mol
- molar heat capacity at constant pressure (311.14 K, x1 = 0.7015): 264.89 ± 4.1 J/K/mol
- molar heat capacity at constant pressure (311.14 K, x1 = 0.8023): 264.11 ± 4.1 J/K/mol
- molar heat capacity at constant pressure (311.14 K, x1 = 0.9139): 262.65 ± 4.1 J/K/mol
- molar heat capacity at constant pressure (311.14 K, x1 = 0.9609): 261.81 ± 4.1 J/K/mol
- molar heat capacity at constant pressure (312.15 K, x1 = 0.0061): 229.87 ± 3.6 J/K/mol
- molar heat capacity at constant pressure (312.15 K, x1 = 0.0249): 233.27 ± 3.6 J/K/mol
- molar heat capacity at constant pressure (312.15 K, x1 = 0.0494): 239.19 ± 3.7 J/K/mol
- molar heat capacity at constant pressure (312.15 K, x1 = 0.1): 247.28 ± 3.8 J/K/mol
- molar heat capacity at constant pressure (312.15 K, x1 = 0.1547): 252.56 ± 3.9 J/K/mol
- molar heat capacity at constant pressure (312.15 K, x1 = 0.1999): 255.82 ± 4 J/K/mol
- molar heat capacity at constant pressure (312.15 K, x1 = 0.2993): 260.68 ± 4 J/K/mol
- molar heat capacity at constant pressure (312.15 K, x1 = 0.4051): 263.58 ± 4.1 J/K/mol
- molar heat capacity at constant pressure (312.15 K, x1 = 0.4986): 265.2 ± 4.1 J/K/mol
- molar heat capacity at constant pressure (312.15 K, x1 = 0.5981): 265.84 ± 4.1 J/K/mol
- molar heat capacity at constant pressure (312.15 K, x1 = 0.7015): 265.94 ± 4.1 J/K/mol
- molar heat capacity at constant pressure (312.15 K, x1 = 0.8023): 265.15 ± 4.1 J/K/mol
- molar heat capacity at constant pressure (312.15 K, x1 = 0.9139): 263.76 ± 4.1 J/K/mol
- molar heat capacity at constant pressure (312.15 K, x1 = 0.9609): 262.89 ± 4.1 J/K/mol
- molar heat capacity at constant pressure (313.16 K, x1 = 0.0061): 230.16 ± 3.6 J/K/mol
- molar heat capacity at constant pressure (313.16 K, x1 = 0.0249): 233.44 ± 3.6 J/K/mol
- molar heat capacity at constant pressure (313.16 K, x1 = 0.0494): 239.44 ± 3.7 J/K/mol
- molar heat capacity at constant pressure (313.16 K, x1 = 0.1): 247.62 ± 3.8 J/K/mol
- molar heat capacity at constant pressure (313.16 K, x1 = 0.1547): 253.04 ± 3.9 J/K/mol
- molar heat capacity at constant pressure (313.16 K, x1 = 0.1999): 256.43 ± 4 J/K/mol
- molar heat capacity at constant pressure (313.16 K, x1 = 0.2993): 261.51 ± 4 J/K/mol
- molar heat capacity at constant pressure (313.16 K, x1 = 0.4051): 264.53 ± 4.1 J/K/mol
- molar heat capacity at constant pressure (313.16 K, x1 = 0.4986): 266.22 ± 4.1 J/K/mol
- molar heat capacity at constant pressure (313.16 K, x1 = 0.5981): 266.9 ± 4.1 J/K/mol
- molar heat capacity at constant pressure (313.16 K, x1 = 0.7015): 267.08 ± 4.1 J/K/mol
- molar heat capacity at constant pressure (313.16 K, x1 = 0.8023): 266.27 ± 4.1 J/K/mol
- molar heat capacity at constant pressure (313.16 K, x1 = 0.9139): 264.91 ± 4.1 J/K/mol
- molar heat capacity at constant pressure (313.16 K, x1 = 0.9609): 264 ± 4.1 J/K/mol
- molar heat capacity at constant pressure (314.14 K, x1 = 0.0061): 230.54 ± 3.6 J/K/mol
- molar heat capacity at constant pressure (314.14 K, x1 = 0.0249): 233.76 ± 3.6 J/K/mol
- molar heat capacity at constant pressure (314.14 K, x1 = 0.0494): 239.64 ± 3.7 J/K/mol
- molar heat capacity at constant pressure (314.14 K, x1 = 0.1): 247.94 ± 3.8 J/K/mol
- molar heat capacity at constant pressure (314.14 K, x1 = 0.1547): 253.52 ± 3.9 J/K/mol
- molar heat capacity at constant pressure (314.14 K, x1 = 0.1999): 257.01 ± 4 J/K/mol
- molar heat capacity at constant pressure (314.14 K, x1 = 0.2993): 262.2 ± 4.1 J/K/mol
- molar heat capacity at constant pressure (314.14 K, x1 = 0.4051): 265.3 ± 4.1 J/K/mol
- molar heat capacity at constant pressure (314.14 K, x1 = 0.4986): 267.11 ± 4.1 J/K/mol
- molar heat capacity at constant pressure (314.14 K, x1 = 0.5981): 267.83 ± 4.2 J/K/mol
- molar heat capacity at constant pressure (314.14 K, x1 = 0.7015): 268.09 ± 4.2 J/K/mol
- molar heat capacity at constant pressure (314.14 K, x1 = 0.8023): 267.27 ± 4.1 J/K/mol
- molar heat capacity at constant pressure (314.14 K, x1 = 0.9139): 265.99 ± 4.1 J/K/mol
- molar heat capacity at constant pressure (314.14 K, x1 = 0.9609): 265.01 ± 4.1 J/K/mol
- molar heat capacity at constant pressure (315.15 K, x1 = 0.0061): 231.04 ± 3.6 J/K/mol
- molar heat capacity at constant pressure (315.15 K, x1 = 0.0249): 234.1 ± 3.6 J/K/mol
- molar heat capacity at constant pressure (315.15 K, x1 = 0.0494): 239.85 ± 3.7 J/K/mol
- molar heat capacity at constant pressure (315.15 K, x1 = 0.1): 248.26 ± 3.9 J/K/mol
- molar heat capacity at constant pressure (315.15 K, x1 = 0.1547): 254.01 ± 3.9 J/K/mol
- molar heat capacity at constant pressure (315.15 K, x1 = 0.1999): 257.6 ± 4 J/K/mol
- molar heat capacity at constant pressure (315.15 K, x1 = 0.2993): 262.9 ± 4.1 J/K/mol
- molar heat capacity at constant pressure (315.15 K, x1 = 0.4051): 266.17 ± 4.1 J/K/mol
- molar heat capacity at constant pressure (315.15 K, x1 = 0.4986): 268.03 ± 4.2 J/K/mol
- molar heat capacity at constant pressure (315.15 K, x1 = 0.5981): 268.84 ± 4.2 J/K/mol
- molar heat capacity at constant pressure (315.15 K, x1 = 0.7015): 269.07 ± 4.2 J/K/mol
- molar heat capacity at constant pressure (315.15 K, x1 = 0.8023): 268.34 ± 4.2 J/K/mol
- molar heat capacity at constant pressure (315.15 K, x1 = 0.9139): 267.02 ± 4.1 J/K/mol
- molar heat capacity at constant pressure (315.15 K, x1 = 0.9609): 266.09 ± 4.1 J/K/mol
- molar heat capacity at constant pressure (316.16 K, x1 = 0.0061): 231.41 ± 3.6 J/K/mol
- molar heat capacity at constant pressure (316.16 K, x1 = 0.0249): 234.24 ± 3.6 J/K/mol
- molar heat capacity at constant pressure (316.16 K, x1 = 0.0494): 240.04 ± 3.7 J/K/mol
- molar heat capacity at constant pressure (316.16 K, x1 = 0.1): 248.61 ± 3.9 J/K/mol
- molar heat capacity at constant pressure (316.16 K, x1 = 0.1547): 254.44 ± 3.9 J/K/mol
- molar heat capacity at constant pressure (316.16 K, x1 = 0.1999): 258.06 ± 4 J/K/mol
- molar heat capacity at constant pressure (316.16 K, x1 = 0.2993): 263.57 ± 4.1 J/K/mol
- molar heat capacity at constant pressure (316.16 K, x1 = 0.4051): 266.93 ± 4.1 J/K/mol
- molar heat capacity at constant pressure (316.16 K, x1 = 0.4986): 268.88 ± 4.2 J/K/mol
- molar heat capacity at constant pressure (316.16 K, x1 = 0.5981): 269.72 ± 4.2 J/K/mol
- molar heat capacity at constant pressure (316.16 K, x1 = 0.7015): 270.07 ± 4.2 J/K/mol
- molar heat capacity at constant pressure (316.16 K, x1 = 0.8023): 269.26 ± 4.2 J/K/mol
- molar heat capacity at constant pressure (316.16 K, x1 = 0.9139): 268 ± 4.2 J/K/mol
- molar heat capacity at constant pressure (316.16 K, x1 = 0.9609): 267.03 ± 4.1 J/K/mol
- molar heat capacity at constant pressure (317.14 K, x1 = 0.0061): 231.74 ± 3.6 J/K/mol
- molar heat capacity at constant pressure (317.14 K, x1 = 0.0249): 234.45 ± 3.6 J/K/mol
- molar heat capacity at constant pressure (317.14 K, x1 = 0.0494): 240.17 ± 3.7 J/K/mol
- molar heat capacity at constant pressure (317.14 K, x1 = 0.1): 248.85 ± 3.9 J/K/mol
- molar heat capacity at constant pressure (317.14 K, x1 = 0.1547): 254.85 ± 4 J/K/mol
- molar heat capacity at constant pressure (317.14 K, x1 = 0.1999): 258.58 ± 4 J/K/mol
- molar heat capacity at constant pressure (317.14 K, x1 = 0.2993): 264.25 ± 4.1 J/K/mol
- molar heat capacity at constant pressure (317.14 K, x1 = 0.4051): 267.74 ± 4.2 J/K/mol
- molar heat capacity at constant pressure (317.14 K, x1 = 0.4986): 269.71 ± 4.2 J/K/mol
- molar heat capacity at constant pressure (317.14 K, x1 = 0.5981): 270.72 ± 4.2 J/K/mol
- molar heat capacity at constant pressure (317.14 K, x1 = 0.7015): 271.01 ± 4.2 J/K/mol
- molar heat capacity at constant pressure (317.14 K, x1 = 0.8023): 270.34 ± 4.2 J/K/mol
- molar heat capacity at constant pressure (317.14 K, x1 = 0.9139): 269.05 ± 4.2 J/K/mol
- molar heat capacity at constant pressure (317.14 K, x1 = 0.9609): 268.07 ± 4.2 J/K/mol
- molar heat capacity at constant pressure (318.15 K, x1 = 0.0061): 232.22 ± 3.6 J/K/mol
- molar heat capacity at constant pressure (318.15 K, x1 = 0.0249): 234.79 ± 3.6 J/K/mol
- molar heat capacity at constant pressure (318.15 K, x1 = 0.0494): 240.39 ± 3.7 J/K/mol
- molar heat capacity at constant pressure (318.15 K, x1 = 0.1): 249.22 ± 3.9 J/K/mol
- molar heat capacity at constant pressure (318.15 K, x1 = 0.1547): 255.3 ± 4 J/K/mol
- molar heat capacity at constant pressure (318.15 K, x1 = 0.1999): 259.15 ± 4 J/K/mol
- molar heat capacity at constant pressure (318.15 K, x1 = 0.2993): 264.95 ± 4.1 J/K/mol
